This is an account of results in patent US9107946B2, “Drug combinations comprising a DGAT inhibitor and a PPAR-agonist” (Janssen Pharmaceutica NV, priority 2008, dated 2015).

One series addresses T1, human DGAT1 (Homo sapiens, UniProt O75907).
T1 construct: FLAG (N); made in house; host or cells: SF9 insect cells (pFastBac / baculovirus); total cell membranes
T1 sequence (O75907 1-488): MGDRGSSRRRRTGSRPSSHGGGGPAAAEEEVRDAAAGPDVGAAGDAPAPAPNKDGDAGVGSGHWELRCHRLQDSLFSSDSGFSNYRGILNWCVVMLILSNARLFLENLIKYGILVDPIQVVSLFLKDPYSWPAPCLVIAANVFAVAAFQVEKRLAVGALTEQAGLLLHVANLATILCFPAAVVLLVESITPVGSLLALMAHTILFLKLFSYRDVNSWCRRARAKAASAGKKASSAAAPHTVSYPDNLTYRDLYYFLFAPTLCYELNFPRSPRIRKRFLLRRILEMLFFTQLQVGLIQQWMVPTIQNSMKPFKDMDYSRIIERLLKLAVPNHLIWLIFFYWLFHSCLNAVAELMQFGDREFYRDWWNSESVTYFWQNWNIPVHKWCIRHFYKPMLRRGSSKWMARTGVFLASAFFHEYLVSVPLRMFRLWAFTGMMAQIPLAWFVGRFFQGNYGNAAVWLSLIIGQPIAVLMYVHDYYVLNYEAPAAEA
In words: DGAT1 FlashPlate assay: inhibition of DGAT1 activity in membrane preparations. Format: biochemical. Conditions: human DGAT1 membranes from SF9 cells, [3H]-oleoylCoA, 120 min at 37° C.; read-out: pIC50 (-logIC50, 50% inhibition of DGAT1 activity) (converted). The text has this: The inhibiting activity of compounds of Class A, Class B, Class C and Class D on DGAT1 activity was screened in a single well procedure assay using DGAT1 comprising membrane preparations and DGAT1 substrate comprising micelles and determining formed radio-active triacylglycerol coming in close proximity of a flashplate surface by radioluminescence.
Said assay is described in full detail in WO2006/067071, the content of which is incorporated herein by reference.
By DGAT1 activity is meant the transfer of coenzyme A activated fatty acids to the 3-position of 1,2-diacylglycerols, thus forming a triglyceride molecule, by enzyme DGAT1.
human DGAT1 (NM012079.2) was cloned into the pFastBac vector, containing translation start, a FLAG-tag at the N-terminus as described in literature and a viral Kozak sequence (AAX) preceding the ATG to improve expression in insect cells. Expression was done as described in literature (Cases, S., Smith, S. J., Zheng, Y., Myers H. M., Lear, S. R., Sande, E., Novak, S., Collins, C., Welch, C. B., Lusis, A. J., Erickson, S. K. and Farese, R. V. (1998) Proc. Natl. Acad. Sci. USA 95, 13018-13023.) using SF9 cells.
72h transfected SF9 cells were collected by centrifugation (13000 rpm-15 min-4° C.) and lysed in 2×500 ml lysisbuffer (0.1M Sucrose, 50 mM KCl, 40 mM KH2PO4, 30 mM EDTA pH 7.2. Cells were homogenized by cell disruptor. After centrifugation 1380 rpm-15 min-4° C. (SN discarded), pellet was resuspended in 500 ml lysisbuffer and total cell membranes collected by ultracentrifugation at 34000 rpm(100 000 g) for 60 min (4° C.). The collected membranes were resuspended in lysis buffer, divided in aliquots and stored with 10% glycerol at −80° C. until use.
• a) 1,2-dioleoyl-sn-glycerol, 10 mg/ml (1,2-diacylglycerol (DAG)) Dissolve in acetonitrile; evaporate the acetonitrile solution under nitrogen and reconstitute in chloroform at a final concentration of 10 mg/ml. • b) L-α-phosphatidylcholine, 1 mg/ml (phosphatidylcholine (PC)) • Dissolve in chloroform at a final concentration of 1 mg/ml and store at 4° C. • c) L-α-phosphatidyl-L-serine, 1 mg/ml (phophatidylserine (PS)) • Dissolve in chloroform at a final concentration of 1 mg/ml and store at 4° C. Method
Add 1 ml dioleoyl-sn-glycerol (10 mg/ml) to 10 ml of L-α-phosphatidylcholine (1 mg/ml) and 10 ml of L-α-phosphatidyl-L-serine (1 mg/ml) in a thick glass recipient. Evaporate under nitrogen and put on ice for 15 min Reconstitute in 10 ml Tris/HCl (10 mM, pH 7.4) by sonication on ice. The sonification process includes sonification cycles of 10 seconds in the sonification bath followed by 10 seconds cool down on ice and repeating this sonification cycle till a homogeneous solution is obtained (takes about 15 min). The thus obtained micelles are stored at −20° C. till later use and contain DAG at a final concentration of 1.61 mM.
• a) Assaybuffer • 50 mM Tris-HCl (pH 7.4), 150 mM MgCl2, 1 mM EDTA, 0.2% BSA. • b) N-ethylmaleimide, 5M • Dissolve 5 g into a final volume of 8 ml DMSO 100% and store at −20° C. in aliquots till later use. • c) Substrate mix (for 1 384 well plate=3840 μl) • 612 μl micelles stock (51 μM final) • 16.6 μl oleoylCoA 9.7 mM • 23 μl [^3H]-oleoylCoA (49 Ci/mmol, 500 μCi/ml) • 3188.4 μl Tris pH 7.4, 10 mM • d) Enzyme mix (for 1 384 well plate=3520 μl) (5 μg/ml) • Add 11.73 μl of DGAT membrane stock (1500 μg/ml stock) to 3508 μl assay buffer. • e) Stop mix (for 1 384 well plate=7.68 ml) (250 mM) • Add 384 μl of N-ethylmaleimide (5M) to 3.456 ml DMSO 100%, and further dilute 3.84 ml of said solution with 3.84 ml DMSO 10%. Method
DGAT activity in membrane preparations was assayed in 50 mM Tris-HCl (pH 7.4), 150 mM MgCl2, 1 mM EDTA and 0.2% BSA, containing 50 μM DAG, 32 μg/ml PC/PS and 8.4 μM [^3H]-oleoylCoA (at a specific activity of 30 nCi/well) in a final volume of 50 μl in 384-well format using the red shifted Basic Image FlashPlate™ (Perkin Elmer Cat.No. SMP400). […]

The conditions of series [1]: 0.04% compound 358 of Class D and/or 0.05% fenofibrate in diet.
Experimental: Male C57BL/6 mice were housed in individually ventilated cages under controlled temperature (21° C.), humidity (45-65%) and light (12 h-12 h reverse light/dark cycle; Lights on—6 PM-6 AM). Mice were set on 60 kcal % fat energy diet until their average body weight was over 45 grams, at which time they were switched to a 45 kcal % fat diet.
For the purpose of Tests A, B and C, the mice were moved into modified type-2 cages with: doublewide food cup, wire grids and a tissue for bedding for several months before experiment to adapt to new housing/feeding conditions. Food (Research diets 45 kcal % diet D12451—see Scheme A) was provided in powdered form in a food hopper located off the front of the cage. […]
The mice were weighted the day before trial onset. […] The food intake the day before trial onset was also measured. […]
Food cups were filled and weighted daily during the experiment. Body weight was recorded every 2nd or 3rd day.
Food Intake and Body Weight data were analyzed using General Linear Models procedures appropriate for a 2×2 factorial design with blocking and repeated measures. […] Results were expressed as means±SEM (standard error of the mean). […]
The nature of series [2]: Test A: food intake, body weight and serum biochemistry, DGAT inhibitor, fenofibrate or both in diet. The settings on record: 12 day trial, 45 kcal % fat diet; for cumulative food intake less than the control group: 0.04% D and/or 0.05% F in diet, only D+F significant (P<0.05). Format: in vivo, DIO C57BL/6 mice. The source says:
Diet was provided in powder form.
At the end of test A, blood was collected under isoflurane anesthesia for serum biochemistry determinations.

Like-named read-outs stand apart in the source and are kept apart here.

In the case of `COc1cc(CNC(=O)c2ccc(N3CCN(C(=O)Cc4c(Cl)cc(CN5CCCC5)cc4Cl)CC3)cc2)cc(OC)c1` [358-Class D, 4-[4-[[2,6-dichloro-4-(1-pyrrolidinylmethyl)phenyl]acetyl]-1-piperazinyl]-N-[(3,5-dimethoxyphenyl)methyl]-benzamide], the melting point fell in the range of 199 to 200 °C. In addition, the IC50 on human DGAT1 is 25.7 nM. Besides, the “21 days body weight change compared to controls (2x2 factorial)” value in series [1] (main effects P<0.05, interaction P>0.05) was “gained less weight than controls”. In addition, the “daily food intake compared to control mice” value in series [1] (45 kcal % fat diet, n=8/group) is reported as “not significantly less than control mice”.
On to `COc1ccc(CC(=O)Nc2ccc(N3CCN(C(=O)Nc4c(Cl)cc(CN5CCCC5)cc4Cl)CC3)cc2)cc1` [compound 223 of Class D], for which the “cumulative food intake less than the control group” value in series [2] was found to be 3.2%. Also, the “daily food intake compared to control mice” value in series [2] (0.04% compound 223 of Class D (D) and/or 0.05% fenofibrate (F) in diet) is on record as “not significantly less than control mice”.
Molecule `CC(=O)N1CCN(Cc2cc(Cl)c(CC(=O)N3CCN(c4ccc(C(=O)NCc5cccc(N6CCCC6)c5)cc4)CC3)c(Cl)c2)CC1` [361-Class D, 4-[4-[[4-[(4-acetyl-1-piperazinyl)methyl]-2,6-dichlorophenyl]acetyl]-1-piperazinyl]-N-[[3-(1-pyrrolidinyl)phenyl]methyl]-benzamide] registered a melting point of 164 to 166 °C. Besides, at human DGAT1, the IC50 is 13.5 nM.
Consider `O=C(Nc1cccc(N2CCCC2)c1)c1ccc(N2CCN(C(=O)C(O)c3ccc(CN4CCCC4)cc3Cl)CC2)cc1` (centres unmarked) [152-Class C, 4-[4-[[2-chloro-4-(1-pyrrolidinylmethyl)phenyl]hydroxyacetyl]-1-piperazinyl]-N-[3-(1-pyrrolidinyl)phenyl]-benzamide], for which the melting point was 138.7 to 140.9 °C. Besides, the IC50 at human DGAT1 is 35.5 nM.
The like results for `CCN1CCN(Cc2cc(Cl)c(CC(=O)N3CCN(c4ccc(C(=O)Nc5cccc(N6CCCC6)c5)cc4)CC3)c(Cl)c2)CC1` [148-Class C, 4-[4-[[2,6-dichloro-4-[(4-ethyl-1-piperazinyl)methyl]phenyl]acetyl]-1-piperazinyl]-N-[3-(1-pyrrolidinyl)phenyl]-benzamide] were, in that order, 180 to 182 °C and 9.12 nM.
In the case of `O=C(Nc1cccc(N2CCCC2)c1)c1ccc(N2CCN(C(=O)Cc3ccc(CN4CCCC4)cc3Cl)CC2)cc1` [151-Class C, 4-[4-[[2-chloro-4-(1-pyrrolidinylmethyl)phenyl]acetyl]-1-piperazinyl]-N-[3-(1-pyrrolidinyl)phenyl]-benzamide], the melting point was in the range of 224.1 to 225.4 °C. Besides, the IC50 on human DGAT1 is 316 nM.
The like results for `COc1cc(CNC(=O)c2ccc(N3CCN(C(=O)Cc4ccc(CN5CCCC5)cc4Cl)CC3)cc2)cc(OC)c1` [353-Class D, 4-[4-[[2-chloro-4-(1-pyrrolidinylmethyl)phenyl]acetyl]-1-piperazinyl]-N-[(3,5-dimethoxyphenyl)methyl]-benzamide] were, in that order, 126.6 to 128.1 °C and 257 nM.
`CC(C)OC(=O)C(C)(C)Oc1ccc(C(=O)c2ccc(Cl)cc2)cc1` [fenofibrate, reference compound]: the “cumulative food intake less than the control group” value in series [2] is listed as 7.5%.
